{
  "source": "patent US20200164047A1",
  "about": "“THERAPY AND DIAGNOSIS OF DISEASE CHARACTERIZED BY ALTERATIONS IN THE DNA DAMAGE RESPONSE” (UNIVERSITÀ DEGLI STUDI DI MILANO, priority 2017, published 2020)",
  "key": {"[1]": {"tested_on": "PDX models (patient-derived xenografts) from melanoma patients", "experiment": "In vivo growth of melanoma PDX models", "design": "species or system mice", "settings": "metformin-intermittent fasting combination", "description": "CD1 nude mice received single subcutaneous flank injections of 5×10^6 HCT-116 cells or 1×10^5 patient-derived melanoma cells suspended in 200 μl saline. After the tumors were established, mice were randomized in different groups. Mice were kept on the feeding/fasting protocols described. […] Tumor growth was monitored by bi-dimensional measurements using a caliper. Experiments have been done in accordance with the Italian Laws (D.L.vo 116/92 and following additions), which enforces EU 86/609 Directive (Council Directive 86/609/EEC of 24 Nov. 1986 on the approximation of laws, regulations and administrative provisions of the Member States regarding the protection of animals used for experimental and other scientific purposes). Mice have been housed accordingly to the guidelines set out in Commission Recommendation 2007/526/EC—Jun. 18, 2007 on guidelines for the accommodation and care of animals used for experimental and other scientific purposes. Note that nude mice show a strain-specific decline in glucose levels upon fasting, of a higher degree as compared to other commonly used mouse strains (C57B6)."}, "[2]": {"tested_on": "yeast cells undergoing chronological aging", "experiment": "Chronological lifespan (CLS) with UV: DDR, NER, viability", "type": "cell-based, S. cerevisiae", "settings": "UV 40 J/m^2; rapamycin 2 ng/ml or metformin 80 mM", "description": "Both drugs were supplemented at the initial overnight culture stage (Day 0), prior to cells entering stationary phase. In experiments including rapamycin-treated cultures, DMSO (0.04%) was used in the untreated cultures. For each chronological aging experiment, cells were set up in synthetic complete medium (SDC) and allowed to grow overnight at 28° C. to reach exponentially growing conditions the next day (day 1) until the end of kinetics (day 10/11 for DDR and NER analysis, day 21-28 for viability). At each examined day, small aliquots of cells were removed, exposed to 40 J/m^2 and further incubated in their exhausted medium. Samples were taken at untreated (prior to UV), 0 and 2 hours (for protein extraction) or 0, 6 and 24 hours (for genomic DNA extraction) after UV treatment.\nPP2A targets: Gln3-myc, Npr1-myc, Nnk1-myc were all separated on NuPage precast 3-8% SDS gels. PonceauS staining was used as a loading control.\nCells were fixed in one volume of ice-cold 100% ethanol and incubated on ice for 5′. Genomic DNAs were then prepared following standard procedure. Equal amounts of DNA were loaded on 0.8% agarose gel, transferred by Southern blot onto nitrocellulose membrane (Amersham Protran 0.45μ) and cross-linked by baking 1 hour at 80° C.\nLifespan Viability Assays were Carried as Follows: Aliquots of Cells were Removed Throughout the CLS kinetics, serially diluted and spotted on YPD plates. The plates were then exposed to 40 J/m^2 (or 20 J/m^2 in some cases), incubated at 25° C. and scanned after 3 days. In FIGS. 33, 34 and 36 individual spot assay rows were cut out for space reasons, but the compared strains were always from the same plates."}, "[3]": {"tested_on": "BON-1 neuroendocrine tumor cells", "experiment": "BON-1 cell viability", "type": "cell-based", "settings": "metformin with low (2.5 mM) glucose", "excerpt": "FIG. 57. […] The assay as performed as described in the other examples."}},
  "data": [
    {"smiles": "CN(C)C(=N)NC(=N)N.Cl", "note": "[metformin]", "values": [
      {"measurement": "tumor growth in PDX models", "setting": "[1]", "value": "also works on PDX models of tumor"},
      {"measurement": "DDR, NER and lifespan during chronological aging", "setting": "[2]", "value": "improve DDR and promote longevity but not NER"},
      {"measurement": "cell viability", "setting": "[3]", "value": "reduction in cell viability"}
    ]}
  ]
}
